Assay results from paper PMC10094648, “Short, Lipidated Dendrimeric γ-AApeptides as New Antimicrobial Peptidomimetics” (International Journal of Molecular Sciences, 2023).
Read-outs that look alike come from different tables or passages of the source.

How the values were obtained:
Human red blood cells [1] = test: Hemolytic activity; conditions: HC50 over MIC against MRSA
Experimental: (§3) Human red blood cells were washed with 1 × PBS buffer, then centrifuged at 700 g for 10 min. After discarding the top clear solution, the bottom cells were diluted to obtain 5% solution using 1 × PBS buffer.
(§4) Then, 50 μL of cell solution was injected into 96-well plates. Following this, 50 μL of synthesized compounds with different concentrations from 250 to 1.95 μg/mL were added into 96-well plates. Then, the mixture was incubated for 1 h at 37 °C. After centrifuging at 3500× g rpm for 10 min, 30 μL of the supernatant was transferred into a new 96-well plate with 100 μL of 1 × PBS buffer. With the same microplate reader, the data of absorbance at 540 nm were compared. Positive control: 2% Triton-100. Calculation formula: percentage of hemolysis = [(Absorbance of sample-Absorbance of PBS)/(Absorbance of Triton-Absorbance of PBS)] × 100

MRSA (ATCC 33591) = assay type: cell-based, methicillin-resistant Staphylococcus aureus
Experimental: (§1) Chemical reagents and solvents were bought from Sigma Aldrich, Oakwood, TCI, and Chem-Impex. Final products were purified with Waters Breeze 2 HPLC and lyophilized using Labconco lyophilizer. HPLC traces of the final product were collected using 5–95% acetonitrile in water with 0.1% HPLC-grade TFA for at least 40 min. The nuclear magnetic resonance (NMR) data were collected using the Agilent 600 MHz NEO instrument. High-resolution mass spectra of compounds (Table S1) were collected using an Agilent Technologies 6540 UHD accurate-mass Q-TOF LC/MS spectrometer. Antibacterial assays and mechanism of action studies were performed using a Biotec multimode microplate reader synergy H4. Six different species of bacteria were used for bacteria assay tests, such as MRSA (ATCC 33591), MRSE (RP62A), VREF (ATCC 700802), E. coli (ATCC 25922), K. pneumoniae (ATCC 13383), and P. aeruginosa (ATCC 27853).
(§2) Concisely, E. coli, K. pneumoniae, P. aeruginosa, MRSA, MRSE, and VREF were cultivated in 37 °C TSB medium for 16 h. Subsequently, 4 ml of new TSB medium was added to 100 μL of cultivated bacterial solution and incubated for another 6 h to reach the mid-log phase. Next, 96-well plates were injected with 50 μL of bacterial solution that reached mid-log phase and 50 μL of compounds with different concentrations, which ranged from 0.75–25 μg/mL. Then, the 96-wells plates were incubated for another 16 h at 37 °C. After 16 h, MICs were determined by a multimode microplate reader.

Human red blood cells [2] = conditions: red cells of human, 1 h
Experimental: as §3, §4

[3] = system: P. aeruginosa (ATCC 27853); assay type: cell-based; conditions: ATCC 27853, 16 h
Experimental: as §1, §2

E. coli (ATCC 25922) = assay type: cell-based; conditions: ATCC 25922, 16 h
Experimental: as §1, §2

MRSE (RP62A) = assay type: cell-based; conditions: 16 h
Experimental: as §1, §2

E.F. (VREF, ATCC 700802) = assay type: cell-based; conditions: ATCC 700802, 16 h
Experimental: as §1, §2

[4] = system: K. pneumoniae (ATCC 13383); assay type: cell-based; conditions: ATCC 13383, 16 h
Experimental: as §1, §2

MRSA = test: Drug resistance study (serial passages); assay type: cell-based, methicillin-resistant Staphylococcus aureus; conditions: after 14 generations
Experimental: Since the abuse of antibiotics, antibacterial drug resistance has become an increasingly serious threat. Thus, it is of great importance to assess the drug resistance of newly developed lead compounds.
The first generation of MIC data of YW-1 against MRSA and E. coli was already obtained in an MIC study. Then, the MRSA of the first generation in the well next to the last clear well was diluted to the mid-log phase, and MICs were tested at 37 °C. This step was repeated for 14 passages. The data of drug resistance for E. coli were obtained using the same method with bacterial E. coli.

[5] = TSB medium, 16 h at 37 °C, compounds 0.75–25 μg/mL, microplate reader

Row | Compound | Selectivity Index (HC50/MICMRSA) (Human red blood cells [1]) | MIC, Gram-Positive (+), MRSA (MRSA (ATCC 33591); [5]) [µg/mL] | HC50 (Human red blood cells [2]) [µg/mL] | MIC, Gram-Negative (−), P.A. [3] [µg/mL] | MIC, Gram-Negative (−), E. coli (E. coli (ATCC 25922)) [µg/mL] | MIC, Gram-Positive (+), MRSE (MRSE (RP62A)) [µg/mL] | MIC, Gram-Positive (+), E.F. (E.F. (VREF, ATCC 700802)) [µg/mL] | MIC, Gram-Negative (−), K.P. [4] [µg/mL] | increase in MIC (drug resistance) (MRSA) | MIC, Gram-Positive (+), MRSA (MRSA (ATCC 33591); ATCC 33591, 16 h) [µg/mL]
1 | CCCCCCCCCCCCCCCC(=O)N[C@@H](C)CN(CC(N)=O)C(=O)CCN(C[C@@H](N)CCCCN)C(=O)CCN [YW-3] | >83.3 | 0.75 to 1.5 | >125 | 6 to 12.5 | 3.0 to 6.0 | 6 to 12.5 | 3.0 to 6.0 | >25 |  | 
2 | O=C(O)c1cn(C2CC2)c2cc(N3CCNCC3)c(F)cc2c1=O [ciprofloxacin, reference compound] |  |  |  |  |  |  |  |  | about 100 fold | 
3 | CCCCCCCCCCCCCCCC(=O)N[C@@H](Cc1ccccc1)CN(CC(N)=O)C(=O)CCN(C[C@@H](N)CCCCN)C(=O)CCN [YW-2] | >41.7 |  | >125 | 12.5 to 25 | 3.0 to 6.0 | 1.5 to 3 | 1.5 to 3 | 6 to 12.5 |  | 1.5 to 3
4 | CCCCCCCCCCCCCCCC(=O)N[C@@H](CCCCNC(=N)N)CN(CC(N)=O)C(=O)CCN(C[C@@H](N)CCCCN)C(=O)CCN [YW-7] | >83.3 | 0.75 to 1.5 | >125 | 12.5 to 25 | 3.0 to 6.0 | 3.0 to 6.0 | 3.0 to 6.0 | >25 |  | 
5 | CCCCCCCCCCCCCCCC(=O)N[C@@H](CO)CN(CC(N)=O)C(=O)CCN(C[C@@H](N)CCCCN)C(=O)CCN [YW-5] | >41.7 |  | >125 |  | 6 to 12.5 |  |  |  |  | 1.5 to 3
6 | CCCCCCCCCCCCCCCC(=O)N[C@@H](CCCCN)CN(CC(N)=O)C(=O)CCN(C[C@@H](N)CCCCN)C(=O)CCN [YW-6] | >83.3 | 0.75 to 1.5 | >125 |  | 6 to 12.5 |  |  |  |  | 
7 | CCCCCCCCCCCCCCCC(=O)N[C@@H](Cc1ccc(O)cc1)CN(CC(N)=O)C(=O)CCN(C[C@@H](N)CCCCN)C(=O)CCN [YW-4] | >83.3 | 0.75 to 1.5 | >125 | >25 | 3.0 to 6.0 | 3.0 to 6.0 | 3.0 to 6.0 | >25 |  | 
